# Experiments:
# [1] = system: naïve CD4+ T cells undergoing differentiation into iTreg cells; assay: Intracellular flow cytometry of FoxP3 in naïve CD4+ T cells differentiating into iTreg cells; type: cell-based, mouse
# Procedure: To gain insight into the role of SIRT1 in Treg biology, SIRT1 protein expression during ex vivo Treg differentiation was analyzed. Naïve CD4^+ T cells (CD4+CD25-CD69-CD44-) were isolated from mouse spleen and lymph nodes and were activated by anti-CD3/CD28 antibodies alone or in combination with cytokines driving differentiation into T helper (Th) 1, Th2 or induced Treg (iTreg) cells. While SIRT1 expression was increased upon CD3/CD28 activation, it was decreased after T cell differentiation, most noticeably in iTregs (FIG. 9A, lane 5).
# To test whether SIRT1 plays a role in iTreg differentiation, SIRT1 was overexpressed during iTreg differentiation. Activated CD4+ cells were infected with bicistronic retroviral vectors expressing SIRT1 and the Thy1.1 surface marker (MSCV-SIRT1-Thy1.1) or a control vector expressing Thy1.1 alone (MSCV-Thy1.1). Cell were further differentiated into Tregs in the presence of recombinant human TGF-β and recombinant human IL-2 as previously described (Fu et al., 2004). After 3 days, cells were stained for surface Thy1.1 and intracellular FoxP3 and analyzed by flow cytometry. […] Cells were cultured 3 more days in IL-2 alone and were reanalyzed at day 6 after infection. Both, the number of FoxP3^+/Thy1.1^+ cells and FoxP3 MFI were decreased in SIRT1-expressing cells (FIG. 9B). The opposite result was observed when SIRT1 was knocked down during iTreg differentiation using lentiviral shRNA vectors.
# To test the effect of Ex-527 on FoxP3 expression in […] FoxP3-expressing cells, Ex-527 was added to naïve CD4+ T cells undergoing differentiation into iTreg cells. The number of FoxP3-expressing cells increased up to 3-fold in the presence of Ex-527 as compared to cells treated with the drug vehicle alone (FIG. 12A). […]
# FIGS. 12A and 12B. […] (B) Flow cytometry of GFP in natural Treg populations isolated from GFP-FoxP3 knock-in mice, in which GFP is expressed as a fusion protein with FoxP3. […] Cells were further cultured with either DMSO or Ex-527 for additional 2 and 7 days and FoxP3 expression was analyzed as in (A). […]
# [2] = system: natural thymus-derived Treg cells; assay: Ex vivo expansion of natural Tregs from GFP-Foxp3 knock-in mice, flow cytometry of GFP and western blot; type: cell-based, mouse
# Procedure: To test the effect of Ex-527 in natural thymus-derived Treg cells, GFP+ cells were isolated from GFP-Foxp3 knock-in mice, in which green fluorescent protein (GFP) is expressed as a fusion protein with FoxP3. Total CD4+ T cells were isolated from spleen and lymph nodes of these mice, and GFP+ T cells were sorted with >95% purity. GFP+ T cells were expanded by anti-CD3/CD28 beads and IL-2 for 5 days when Ex-527 or dimethylsulfoxide (DMSO) was added. Two days later, 75% of cells were GFP-positive regardless whether Ex-527 was added or not; however, the MFI of GFP was increased in Ex-527-treated cells (FIG. 12B, day 7). 7 days later, only 5% of cells remained GFP-positive in control-treated cells versus 45% in Ex-527-treated cultures (FIG. 12B, day 12). In addition, the […] of FoxP3 remained higher in Ex-527-treated cells versus control-treated cells (387 versus 263). […] No FoxP3 expression was detected from either GFP-negative cells or cells expanded in the absence of Ex-527 (FIG. 12B). […] Thus, SIRT1 inhibitors, e.g., Ex-527, can be used to maximize ex vivo or in vivo expansion of Tregs for therapeutic purposes.
# FIGS. 12A and 12B. Inhibition of SIRT1 activity by Ex-527 promotes differentiation of iTreg cells and FoxP3 expression in nTreg cells. (A) Intracellular flow cytometry (% FoxP3+ cells and MFI) of FoxP3 in induced Tregs treated during differentiation with Ex-527 (50 μM) or DMSO as control. Shown are averages of three independent experiments (mean±SD). (B) Flow cytometry of GFP in natural Treg populations isolated from GFP-FoxP3 knock-in mice, in which GFP is expressed as a fusion protein with FoxP3. GFP+ nTregs were expanded by α-CD3/CD28 beads and hIL-2 (2000 U/ml) for 5 days. Cells were further cultured with either DMSO or Ex-527 for additional 2 and 7 days and FoxP3 expression was analyzed as in (A). Western blot analysis of FoxP3 in cell lysates from GFP−, GFP+, and GFP+ cultures expanded as described in the presence of DMSO or EX-527.
# [3] = system: FLAG-FoxP3 in 293 T cells; assay: Western blot of FLAG-FoxP3 (wild type or mutant) or FLAG-AML1/Runx1 expression in 293 T cells; type: cell-based; details: for expression of FLAG-AML1/Runx1 / FoxP3 protein expression: Ex-527 50 μM or TSA 400 nM, 16 hours; for FoxP3 protein expression: nicotinamide 5 mM
# Procedure: To determine whether the three newly identified acetylated lysine residues regulate FoxP3 stability, mutants were generated in which each of three lysine residues was substituted to arginines (KR), a conservative mutation that preserves the positive charge of the residue.
# To investigate the effect of SIRT1 inhibition and the three newly identified acetylation sites on FoxP3 protein stability, wild type and 3KR mutant FoxP3 protein expression was measured after treatment with cycloheximide (CHX), a general inhibitor of protein translation.
# (B) Scheme of acetylated lysine residues identified by mass spectrometry using immunoprecipitated FLAG-FoxP3 protein. The murine protein is shown.
# [4] = system: Jurkat T cells; assay: IL-2 protein ELISA in supernatant of α-CD3-stimulated Jurkat T cells infected with EF-1α-GFP or EF-1α-Tat-GFP viruses; type: cell-based, human; details: 16 hrs
# Procedure: Lentiviral vectors, which contained the heterologous elongation factor 1α (EF-1α) promoter driving Tat and GFP expression, were generated. High titer viral stocks were produced and used to infect Jurkat T cells. […] Infected cultures were stimulated with antibodies specific for the CD3 receptor and treated with increased concentrations of resveratrol (0.4 μM, 2 μM, and 10 μM), a known SIRT1 activator for 16 hrs. IL-2 protein was measured in the culture supernatant by ELISA assay. Following stimulation with α-CD3 antibody, IL-2 protein was superinduced ˜4-fold by wild type Tat (FIG. 8A). In cells expressing Tat, ˜2300 pg/ml of IL-2 protein was detected in response to α-CD3 treatment, whereas in control cells, only ˜600 pg/ml of IL-2 protein was induced.
# The effects of small molecule of SIRT1 ([…]) on T cell hyperactivation in Tat-expressing cells were examined. Jurkat T cells were infected with EF-1α-GFP or EF-1α-Tat-GFP viruses (FIG. 8B). Infected cultures were stimulated with α-CD3 antibody and treated with SRT2183 (0.2, 1, and 5 μM) for 16 hrs.
# FIGS. 8A and 8B. Resveratrol and small molecule activator of SIRT1 (SRT2183) suppresses T cell hyperactivation by Tat. (A) IL-2 protein levels measured by ELISA in the supernatant of infected cultures. 24 hrs after infection with EF1α-GFP and EF1α-Tat-GFP viruses, Jurkat T cells were stimulated with α-CD3 antibody in the presence of increased concentrations of resveratrol (0.4, 2, and 10 μM) for 16 hrs. (B) 24 hrs after infection with EF1α-GFP and EF1α-Tat-GFP viruses, Jurkat T cells were stimulated with α-CD3 antibody in the presence of increased concentrations of SRT2183 (0.2, 1, and 5 μM) for 16 hrs. IL-2 protein levels were measured by ELISA in the supernatant of infected cultures.
# [5] = system: FLAG-FoxP3 in 293 T cells; assay: Immunoprecipitation/western blot of acetylated FLAG-FoxP3 or HA-AML1/Runx1 in 293 T cells cotransfected with p300; type: cell-based
# Excerpt: FIGS. 10A-D. SIRT1 interacts with FoxP3 and inhibition of SIRT1 deacetylase activity increases acetylation of FoxP3. (A) Communoprecipitation/western blot analysis of FLAG-tagged FoxP3 and HA-tagged SIRT1 after transfection of corresponding expression vectors or empty vector controls into 293T cells. (B) Communoprecipitation assay of SIRT1 and FoxP3 deletion mutants. A schematic summary of the binding of FoxP3 mutants to SIRT1 is shown. The forkhead box (FH) indicates the DNA binding domain ZnF, zinc finger domain; LZ, leucine zipper. […] An expression vector for the p300 acetyltransferase was cotransfected with FoxP3. (D) The same experiment as in (C) using HA-AML1/Runx1. Immunoprecipitations were performed with either anti-FLAG antibody coupled to agarose (α-FLAG agarose) (C) or anti-hemagglutinin antibody coupled to agarose (α-HA agarose) (D) and western blotting with rabbit polyclonal antibody to acetyl-lysine (α-acetyl lysine) (α-AcK), α-FLAG or α-HA antibodies.
# [6] = 50 μM during iTreg differentiation
# [7] = day 7 (two days after addition)
structure (smiles),measurement,setting,value
"NC(=O)C1CCCc2c1[nH]c1ccc(Cl)cc21 (centres unmarked) [Ex-527, 6-chloro-2,3,4,9-tetrahydro-1H-carbazole-1-carboxamide]",increase of mean fluorescent intensity (MFI) of FoxP3 expression,[1]; [6],up to 2 fold
same,increase of number of FoxP3-expressing cells vs drug vehicle,[1]; [6],up to 3 fold
same,FoxP3 mRNA levels in iTreg cells,[1]; during iTreg differentiation,no effect
same,GFP-positive cells,[2]; [7],75%
same,MFI of GFP,[2]; [7],increased
same,FoxP3 expression by western blot analysis,[2]; day 12,remained visible
same,MFI of FoxP3,[2]; day 12,387
same,GFP-positive cells,[2]; day 12 (7 days after addition),45%
same,FoxP3 mRNA levels,[3]; 293 T cells,No effect
same,expression of K31R mutant FLAG-FoxP3,"[3]; 293 T cells, 50 μM",increased expression of the K31R mutant to comparable levels as the wild type FoxP3 protein
same,expression of K262/267R double mutant FLAG-FoxP3,"[3]; 293 T cells, 50 μM",could not further increase
same,increase of expression of K262R and K267R mutant FLAG-FoxP3,"[3]; 293 T cells, 50 μM",less visible
same,expression of FLAG-AML1/Runx1,[3]; 293 T cells,unchanged
same,FoxP3 protein expression,[3]; 293 T cells,increased FoxP3 protein expression to a similar extent as nicotinamide
same,wild type FoxP3 protein expression after cycloheximide,[3]; 4 h of CHX treatment,stabilized FoxP3 protein expression
same,3KR mutant FoxP3 protein expression after cycloheximide,[3]; 4 hour-time point of CHX treatment,no further stabilization
O=C(Nc1ccccc1-c1cn2c(CN3CC[C@@H](O)C3)csc2n1)c1ccc2ccccc2c1 [SRT2183],IL-2 protein in Tat expressing cells,[4]; 5 μM,suppressed the production of IL-2 protein
same,IL-2 protein in control cells,[4]; 5 μM,slight increase in IL-2 protein
same,IL-2 protein in control and Tat expressing cells,[4]; 0.2 and 1 μM,caused increases in IL-2 protein
CC(/C=C/C(=O)NO)=C\[C@@H](C)C(=O)c1ccc(N(C)C)cc1 [trichostatin A],acetylation levels of FoxP3,[5],hyperacetylation
same,acetylation of AML1/Runx1,[5],increased to the same extent
same,expression of FLAG-AML1/Runx1,[3]; 293 T cells,increased both FoxP3 and AML1/Runx1 expression
same,FoxP3 protein expression,[3]; 293 T cells,increased both FoxP3 and AML1/Runx1 expression

# From US8748464B2, “Use of SIRT1 activators or inhibitors to modulate an immune response” (The J. David Gladstone Institutes, priority 2008, dated 2014)
